Experimental data: PubChem BioAssay AID2060602 (Molecular Pharmacology Branch, DTP, NCI, 2025)

System: 648629-189-R-J1-PDC complex spheroids viability
Assay: Anticancer human tumor 648629-189-R-J1-PDC patient-derived bladder carcinoma cell line growth inhibition [CLK]
Conditions: for IC50: curve of first compound; for viability, T/C: stronger effect = lower value; active = viability on the fitted dose curve at most 10% of control; inactive = the rest
Method in brief: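 Multi-cell-type spheroids combined patient-derived tumor cells with HUVEC endothelial cells and human mesenchymal stem cells. Paired agents were dosed in half-log steps down from about clinical Cmax, or from 10 microM where Cmax was unknown.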

[1] = second compound 0.0316 µM, first compound 0.0316 µM
[2] = second compound 0.0316 µM, first compound 0.1 µM
[3] = second compound 0.0316 µM, first compound 0.316 µM
[4] = second compound 0.0316 µM, first compound 1 µM
[5] = second compound 0.0316 µM, first compound 3.16 µM
[6] = second compound 0.0316 µM, first compound 10 µM
[7] = second compound 0.1 µM, first compound 0.0316 µM
[8] = second compound 0.1 µM, first compound 0.1 µM
[9] = second compound 0.1 µM, first compound 0.316 µM
[10] = second compound 0.1 µM, first compound 1 µM
[11] = second compound 0.1 µM, first compound 3.16 µM
[12] = second compound 0.1 µM, first compound 10 µM
[13] = second compound 0.316 µM, first compound 0.0316 µM
[14] = second compound 0.316 µM, first compound 0.1 µM
[15] = second compound 0.316 µM, first compound 0.316 µM
[16] = second compound 0.316 µM, first compound 1 µM
[17] = second compound 0.316 µM, first compound 3.16 µM
[18] = second compound 0.316 µM, first compound 10 µM
[19] = second compound 1 µM, first compound 0.0316 µM
[20] = second compound 1 µM, first compound 0.1 µM
[21] = second compound 1 µM, first compound 0.316 µM
[22] = second compound 1 µM, first compound 1 µM
[23] = second compound 1 µM, first compound 3.16 µM
[24] = second compound 1 µM, first compound 10 µM
[25] = second compound 3.16 µM, first compound 0.0316 µM
[26] = second compound 3.16 µM, first compound 0.1 µM
[27] = second compound 3.16 µM, first compound 0.316 µM
[28] = second compound 3.16 µM, first compound 1 µM
[29] = second compound 3.16 µM, first compound 3.16 µM
[30] = second compound 3.16 µM, first compound 10 µM
[31] = second compound 10 µM, first compound 0.0316 µM
[32] = second compound 10 µM, first compound 0.1 µM
[33] = second compound 10 µM, first compound 0.316 µM
[34] = second compound 10 µM, first compound 1 µM
[35] = second compound 10 µM, first compound 3.16 µM
[36] = second compound 10 µM, first compound 10 µM
[37] = second compound 0.0316 µM, first compound 0.00316 µM
[38] = second compound 0.0316 µM, first compound 0.01 µM
[39] = second compound 0.1 µM, first compound 0.00316 µM
[40] = second compound 0.1 µM, first compound 0.01 µM
[41] = second compound 0.316 µM, first compound 0.00316 µM
[42] = second compound 0.316 µM, first compound 0.01 µM
[43] = second compound 1 µM, first compound 0.00316 µM
[44] = second compound 1 µM, first compound 0.01 µM
[45] = second compound 3.16 µM, first compound 0.00316 µM
[46] = second compound 3.16 µM, first compound 0.01 µM
[47] = second compound 10 µM, first compound 0.00316 µM
[48] = second compound 10 µM, first compound 0.01 µM
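Throughout, for viability, T/C: drug exposure lasted seven days before viability readout; 100% = DMSO vehicle control wells.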

C#Cc1c(F)ccc2cc(O)cc(-c3ncc4c(N5CC6CCC(C5)N6)nc(OCC56CCCN5CC(F)C6)nc4c3F)c12 (stereo not given) + CNC(=O)c1ccc(Nc2nc(OC3CCCC3)c3c(-c4ccc5nc(C)oc5c4)c[nH]c3n2)c(OC)c1
8.43 µM: IC50 (second compound 0.1 µM)
> 10 µM: IC50 (second compound 0.0316 µM)
inactive: viability, T/C [1] 120% | viability, T/C [2] 88.4% | viability, T/C [3] 108% | viability, T/C [4] 105% | viability, T/C [5] 100% | viability, T/C [6] 91.4% | viability, T/C [7] 83.2% | viability, T/C [8] 76.9% | viability, T/C [9] 84.1% | viability, T/C [10] 79.4% | viability, T/C [11] 61.8% | viability, T/C [12] 48% | viability, T/C [13] 28.1% | viability, T/C [14] 25.4% | viability, T/C [15] 25.1% | viability, T/C [16] 23% | viability, T/C [17] 19.3% | viability, T/C [18] 22% | viability, T/C [19] 18.7% | viability, T/C [20] 20.2% | viability, T/C [21] 15.5% | viability, T/C [22] 18.6% | viability, T/C [23] 18.2% | viability, T/C [24] 19.4% | viability, T/C [25] 17.2% | viability, T/C [26] 17.6% | viability, T/C [27] 15.4% | viability, T/C [28] 16.9% | viability, T/C [29] 17.6% | viability, T/C [30] 17.9% | viability, T/C [31] 20.1% | viability, T/C [32] 18.5% | viability, T/C [33] 18% | viability, T/C [34] 17% | viability, T/C [35] 21.5% | viability, T/C [36] 16.6%
< 0.0316 µM: IC50 (second compound 0.316 µM) | IC50 (second compound 1 µM) | IC50 (second compound 3.16 µM) | IC50 (second compound 10 µM)

CC(CO)NC(=O)c1cc(-c2ccc(Cl)cc2)nn(-c2cnn(C)c2)c1=O (stereo not given) + CNC(=O)c1ccc(Nc2nc(OC3CCCC3)c3c(-c4ccc5nc(C)oc5c4)c[nH]c3n2)c(OC)c1
> 10 µM: IC50 (second compound 0.0316 µM) | IC50 (second compound 0.1 µM)
< 0.0316 µM: IC50 (second compound 0.316 µM) | IC50 (second compound 1 µM) | IC50 (second compound 3.16 µM) | IC50 (second compound 10 µM)
inactive: viability, T/C [1] 99.5% | viability, T/C [2] 92.6% | viability, T/C [3] 117% | viability, T/C [4] 104% | viability, T/C [5] 88.9% | viability, T/C [6] 88.5% | viability, T/C [7] 90.9% | viability, T/C [8] 87.7% | viability, T/C [9] 90.3% | viability, T/C [10] 76.9% | viability, T/C [11] 90.9% | viability, T/C [12] 82.8% | viability, T/C [13] 31.1% | viability, T/C [14] 28.2% | viability, T/C [15] 29.3% | viability, T/C [16] 30.2% | viability, T/C [17] 26.8% | viability, T/C [18] 21.7% | viability, T/C [19] 16.6% | viability, T/C [20] 19.7% | viability, T/C [21] 18.5% | viability, T/C [22] 18.8% | viability, T/C [23] 22.5% | viability, T/C [24] 18.8% | viability, T/C [25] 18% | viability, T/C [26] 21.2% | viability, T/C [27] 16.1% | viability, T/C [28] 23% | viability, T/C [29] 20.8% | viability, T/C [30] 17.9% | viability, T/C [31] 18.7% | viability, T/C [32] 20.2% | viability, T/C [33] 19.5% | viability, T/C [34] 21.6% | viability, T/C [35] 19.2% | viability, T/C [36] 19.3%

CC(Nc1ccc2c(c1)OCCn1cc(N3C(=O)OCC3C(F)F)nc1-2)C(N)=O (stereo not given) + CNC(=O)c1ccc(Nc2nc(OC3CCCC3)c3c(-c4ccc5nc(C)oc5c4)c[nH]c3n2)c(OC)c1
inactive: viability, T/C [1] 114% | viability, T/C [2] 106% | viability, T/C [3] 89.4% | viability, T/C [4] 67.8% | viability, T/C [5] 64.9% | viability, T/C [6] 40.6% | viability, T/C [7] 95.7% | viability, T/C [8] 89.9% | viability, T/C [9] 84.1% | viability, T/C [10] 77.3% | viability, T/C [11] 62.2% | viability, T/C [12] 49.6% | viability, T/C [13] 27.7% | viability, T/C [14] 37.6% | viability, T/C [15] 33.7% | viability, T/C [16] 34% | viability, T/C [17] 31.2% | viability, T/C [18] 27.1% | viability, T/C [19] 17% | viability, T/C [20] 22.3% | viability, T/C [21] 18.5% | viability, T/C [22] 17.5% | viability, T/C [23] 16.6% | viability, T/C [24] 14.8% | viability, T/C [25] 16.7% | viability, T/C [26] 20.3% | viability, T/C [27] 16.1% | viability, T/C [28] 17.8% | viability, T/C [29] 12.9% | viability, T/C [30] 15.9% | viability, T/C [31] 21.5% | viability, T/C [32] 19.8% | viability, T/C [33] 17.2% | viability, T/C [34] 15% | viability, T/C [35] 21.8% | viability, T/C [36] 11.5%
9.49 µM: IC50 (second compound 0.1 µM)
5.87 µM: IC50 (second compound 0.0316 µM)
< 0.0316 µM: IC50 (second compound 0.316 µM) | IC50 (second compound 1 µM) | IC50 (second compound 3.16 µM) | IC50 (second compound 10 µM)

CCN1CCN(Cc2ccc(Nc3ncc(F)c(-c4cc(F)c5nc(C)n(C(C)C)c5c4)n3)nc2)CC1 + CNC(=O)c1ccc(Nc2nc(OC3CCCC3)c3c(-c4ccc5nc(C)oc5c4)c[nH]c3n2)c(OC)c1
inactive: viability, T/C [37] 98.4% | viability, T/C [38] 103% | viability, T/C [1] 107% | viability, T/C [2] 100% | viability, T/C [3] 113% | viability, T/C [4] 136% | viability, T/C [39] 81.3% | viability, T/C [40] 92.8% | viability, T/C [7] 104% | viability, T/C [8] 80.7% | viability, T/C [9] 102% | viability, T/C [10] 129% | viability, T/C [41] 30.2% | viability, T/C [42] 28.1% | viability, T/C [13] 24.2% | viability, T/C [14] 28.4% | viability, T/C [15] 36.4% | viability, T/C [16] 39.6% | viability, T/C [43] 17.2% | viability, T/C [44] 23% | viability, T/C [19] 19.1% | viability, T/C [20] 24.1% | viability, T/C [21] 21.5% | viability, T/C [22] 31.1% | viability, T/C [45] 18.2% | viability, T/C [46] 18.6% | viability, T/C [25] 20.9% | viability, T/C [26] 17.8% | viability, T/C [27] 23.9% | viability, T/C [28] 25.1% | viability, T/C [47] 16.2% | viability, T/C [48] 18.9% | viability, T/C [31] 18.1% | viability, T/C [32] 18.9% | viability, T/C [33] 24.3% | viability, T/C [34] 23.8%
> 1 µM: IC50 (second compound 0.0316 µM) | IC50 (second compound 0.1 µM)
< 0.00316 µM: IC50 (second compound 0.316 µM) | IC50 (second compound 1 µM) | IC50 (second compound 3.16 µM) | IC50 (second compound 10 µM)

COc1c(OCCCN2CCOCC2)ccc2c3n(c(=NC(=O)c4cnc(N)nc4)nc12)CCN3 + CNC(=O)c1ccc(Nc2nc(OC3CCCC3)c3c(-c4ccc5nc(C)oc5c4)c[nH]c3n2)c(OC)c1
0.0928 µM: IC50 (second compound 0.0316 µM)
inactive: viability, T/C [37] 94.5% | viability, T/C [38] 92.6% | viability, T/C [1] 88.2% | viability, T/C [2] 46.9% | viability, T/C [3] 15.3% | viability, T/C [39] 101% | viability, T/C [40] 105% | viability, T/C [7] 80.6% | viability, T/C [8] 49.1% | viability, T/C [9] 17.6% | viability, T/C [41] 30.4% | viability, T/C [42] 31.4% | viability, T/C [13] 34.1% | viability, T/C [14] 31.3% | viability, T/C [15] 17.9% | viability, T/C [16] 8.81% | viability, T/C [43] 19.9% | viability, T/C [44] 19.9% | viability, T/C [19] 16.1% | viability, T/C [20] 14.5% | viability, T/C [21] 11.1% | viability, T/C [45] 16.3% | viability, T/C [46] 15.8% | viability, T/C [25] 16.1% | viability, T/C [26] 11.2% | viability, T/C [47] 19.9% | viability, T/C [48] 18.3% | viability, T/C [31] 16.9% | viability, T/C [32] 13.4%
active: viability, T/C [4] 8.61% | viability, T/C [10] 8.37% | viability, T/C [22] 5.6% | viability, T/C [27] 7.88% | viability, T/C [28] 4.37% | viability, T/C [33] 9.26% | viability, T/C [34] 5.85%
< 0.00316 µM: IC50 (second compound 0.316 µM) | IC50 (second compound 1 µM) | IC50 (second compound 3.16 µM) | IC50 (second compound 10 µM)
0.093 µM: IC50 (second compound 0.1 µM)
